According to PubChem BioAssay (NCI):
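Dose response: 5 concentrations. Exposure: 48 h. Format: 96-well plates. Endpoint: linear interpolation; highest concentration if not reached. TGI marks complete inhibition of growth.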

Legend:
Assay in all cases: growth of human tumour cells (NCI), 48 h
[1] = test system: 786-0 renal
[2] = test system: A549 NSCLC
[3] = test system: ACHN renal
[4] = test system: BT-549 breast
[5] = test system: CCRF-CEM leukemia
[6] = test system: COLO 205 colon
[7] = test system: DU-145 prostate
[8] = test system: EKVX NSCLC
[9] = test system: HCC-2998 colon
[10] = test system: HCT-116 colon
[11] = test system: HCT-15 colon
[12] = test system: HL-60(TB) leukemia
[13] = test system: HOP-62 NSCLC
[14] = test system: HS 578T breast
[15] = test system: HT29 colon
[16] = test system: IGROV1 ovarian
[17] = test system: K-562 leukemia
[18] = test system: KM12 colon
[19] = test system: M14 melanoma
[20] = test system: MALME-3M melanoma
[21] = test system: MCF7 breast
[22] = test system: MDA-MB-231 breast
[23] = test system: MDA-MB-435
[24] = test system: MDA-N
[25] = test system: MOLT-4 leukemia
[26] = test system: NCI-H226 lung
[27] = test system: NCI-H23 lung
[28] = test system: NCI-H460 lung
[29] = test system: NCI-H522 lung
[30] = test system: NCI/ADR-RES ovarian
[31] = test system: OVCAR-3 ovarian
[32] = test system: OVCAR-4 ovarian
[33] = test system: OVCAR-5 ovarian
[34] = test system: OVCAR-8 ovarian
[35] = test system: PC-3 prostate
[36] = test system: RPMI-8226 leukemia
[37] = test system: RXF 393 renal
[38] = test system: SF-268 CNS
[39] = test system: SF-295 CNS
[40] = test system: SK-MEL-2 melanoma
[41] = test system: SK-MEL-28 melanoma
[42] = test system: SK-MEL-5 melanoma
[43] = test system: SK-OV-3 ovarian
[44] = test system: SN12C renal
[45] = test system: SNB-19 CNS
[46] = test system: SNB-75 CNS
[47] = test system: SW-620 colon
[48] = test system: T-47D breast
[49] = test system: TK-10 renal
[50] = test system: U251 CNS
[51] = test system: UACC-257 melanoma
[52] = test system: UACC-62 melanoma
[53] = test system: UO-31 renal
[54] = test system: A498 renal
[55] = test system: CAKI-1 renal
[56] = test system: LOX IMVI melanoma
[57] = test system: SF-539 CNS

`N#C/C(=N/Nc1nc[nH]c1C(N)=O)C(=O)Nc1ccccc1` showed a TGI [1] of over 100 µM, a TGI [2] of over 100 µM and a TGI [3] of over 100 µM. It also gave a TGI [4] of over 100 µM, a TGI [5] of over 100 µM and a TGI [6] of over 100 µM. It also gave a TGI [7] of over 100 µM, a TGI [8] of over 100 µM and a TGI [9] of over 100 µM. It also gave a TGI [10] of over 100 µM, a TGI [11] of over 100 µM and a TGI [12] of over 100 µM. For the same compound, the TGI [13] was over 100 µM, the TGI [14] was over 100 µM and the TGI [15] was over 100 µM. For the same compound, the TGI [16] was over 100 µM, the TGI [17] was over 100 µM and the TGI [18] was over 100 µM. It also gave a TGI [19] of over 100 µM, a TGI [20] of over 100 µM and a TGI [21] of over 100 µM. The TGI [22] was over 100 µM, the TGI [23] was over 100 µM and the TGI [24] was over 100 µM. For the same compound, the TGI [25] was over 100 µM, the TGI [26] was over 100 µM and the TGI [27] was over 100 µM. It also gave a TGI [28] of over 100 µM, a TGI [29] of 45.7 µM and a TGI [30] of over 100 µM. The TGI [31] was 89.6 µM, the TGI [32] was over 100 µM and the TGI [33] was over 100 µM. It also gave a TGI [34] of over 100 µM, a TGI [35] of over 100 µM and a TGI [36] of over 100 µM. The TGI [37] was over 100 µM, the TGI [38] was over 100 µM and the TGI [39] was over 100 µM. For the same compound, the TGI [40] was over 100 µM, the TGI [41] was over 100 µM and the TGI [42] was over 100 µM. It also gave a TGI [43] of over 100 µM, a TGI [44] of over 100 µM and a TGI [45] of over 100 µM. It also gave a TGI [46] of over 100 µM, a TGI [47] of over 100 µM and a TGI [48] of over 100 µM. It also gave a TGI [49] of over 100 µM, a TGI [50] of over 100 µM and a TGI [51] of over 100 µM. For the same compound, the TGI [52] was over 100 µM and the TGI [53] was over 100 µM.
For `O=C(N/N=C(/COc1ccccc1Cl)N=Cc1cccnc1)c1ccncc1`, the TGI [1] was over 100 µM, the TGI [54] was over 100 µM and the TGI [2] was over 100 µM. The TGI [3] was over 100 µM, the TGI [4] was over 100 µM and the TGI [55] was over 100 µM. It also gave a TGI [5] of over 100 µM, a TGI [6] of over 100 µM and a TGI [7] of over 100 µM. It also gave a TGI [8] of over 100 µM, a TGI [9] of over 100 µM and a TGI [10] of over 100 µM. The TGI [11] was over 100 µM, the TGI [12] was over 100 µM and the TGI [13] was over 100 µM. It also gave a TGI [14] of over 100 µM, a TGI [15] of over 100 µM and a TGI [16] of over 100 µM. The TGI [17] was over 100 µM, the TGI [18] was over 100 µM and the TGI [56] was over 100 µM. The TGI [19] was over 100 µM, the TGI [20] was over 100 µM and the TGI [21] was over 100 µM. It also gave a TGI [22] of over 100 µM, a TGI [23] of over 100 µM and a TGI [24] of over 100 µM. The TGI [25] was over 100 µM, the TGI [26] was over 100 µM and the TGI [27] was over 100 µM. For the same compound, the TGI [28] was over 100 µM, the TGI [29] was over 100 µM and the TGI [30] was over 100 µM. It also gave a TGI [31] of over 100 µM, a TGI [32] of over 100 µM and a TGI [33] of over 100 µM. The TGI [34] was over 100 µM, the TGI [35] was over 100 µM and the TGI [36] was over 100 µM. It also gave a TGI [37] of over 100 µM, a TGI [38] of over 100 µM and a TGI [39] of over 100 µM. For the same compound, the TGI [57] was over 100 µM, the TGI [40] was over 100 µM and the TGI [41] was over 100 µM. For the same compound, the TGI [43] was over 100 µM, the TGI [44] was over 100 µM and the TGI [45] was over 100 µM. The TGI [46] was over 100 µM, the TGI [47] was over 100 µM and the TGI [48] was over 100 µM. The TGI [49] was over 100 µM, the TGI [50] was over 100 µM and the TGI [51] was over 100 µM. It also gave a TGI [52] of over 100 µM.
Work on `CC1(C)SC2C(NC(=O)C(C(=O)O)c3ccccc3)C(=O)N2C1C(=O)O` (stereo not given) yielded a TGI [1] of over 100 µM, a TGI [54] of over 100 µM and a TGI [3] of over 100 µM. For the same compound, the TGI [4] was over 100 µM, the TGI [55] was over 100 µM and the TGI [5] was over 100 µM. For the same compound, the TGI [6] was over 100 µM, the TGI [7] was over 100 µM and the TGI [8] was over 100 µM. The TGI [10] was over 100 µM, the TGI [11] was over 100 µM and the TGI [12] was over 100 µM. The TGI [13] was over 100 µM, the TGI [14] was over 100 µM and the TGI [15] was over 100 µM. The TGI [16] was over 100 µM, the TGI [17] was over 100 µM and the TGI [18] was over 100 µM. The TGI [56] was over 100 µM, the TGI [19] was over 100 µM and the TGI [20] was over 100 µM. The TGI [21] was over 100 µM, the TGI [22] was over 100 µM and the TGI [23] was over 100 µM. It also gave a TGI [24] of over 100 µM, a TGI [25] of over 100 µM and a TGI [26] of over 100 µM. For the same compound, the TGI [27] was over 100 µM, the TGI [30] was over 100 µM and the TGI [31] was over 100 µM. It also gave a TGI [33] of over 100 µM, a TGI [34] of over 100 µM and a TGI [35] of over 100 µM. The TGI [36] was over 100 µM, the TGI [37] was over 100 µM and the TGI [38] was over 100 µM. It also gave a TGI [39] of over 100 µM, a TGI [57] of over 100 µM and a TGI [40] of over 100 µM. For the same compound, the TGI [41] was over 100 µM, the TGI [42] was over 100 µM and the TGI [43] was over 100 µM. The TGI [44] was over 100 µM, the TGI [45] was over 100 µM and the TGI [46] was over 100 µM. It also gave a TGI [47] of over 100 µM, a TGI [48] of over 100 µM and a TGI [49] of over 100 µM. The TGI [50] was over 100 µM, the TGI [51] was over 100 µM and the TGI [52] was over 100 µM. For the same compound, the TGI [53] was over 100 µM.
